Measurements taken from EP4722208A1, “NOVEL BENZAMIDE DERIVATIVE COMPOUND AND PHARMACEUTICAL COMPOSITION COMPRISING SAME” (Samjin Pharmaceutical Co., Ltd., priority 2023, dated 2024).

Columns and labels:
[1] = test system: HCT116 colorectal cancer cell lines; experiment: Tumor cytotoxicity assay (MTT); type: cell-based; details: Homo sapiens, HCT-116, HCT116 cells, 72 hours treatment, 0.1 nM to 1000 nM
Method: The anticancer efficacy of the compound of the present invention was evaluated using the MTT analysis method in HCT116 colorectal cancer cell lines. The cells were incubated using DMEM medium containing 10% FBS. The cells were distributed in a 96-well plate at a density of 2,500 cells per well, the HCT116 cells were incubated for 24 hours, and then treated with a drug using a serum free DMEM. First, a compound was prepared in 100% dimethyl sulfoxide (DMSO) at a concentration of 0.02 µM to 200 µM, diluted in the culture medium so that the final concentration of DMSO might reach 0.5%, and treated with the drug so that the final concentration of the compound might range from 0.1 nM to 1000 nM. After that, they were further incubated for 72 hours at 37°C and CO2 5% and treated with MTT (Sigma-Aldrich, M2128) to confirm cytotoxicity. Formazan produced from reduction by enzymes in the mitochondria of living cells was measured using Spark® Multimode Microplate Reader TECAN equipment. A cell viability (%) was relatively determined by subtracting a reference 650 nm optical density (O.D.) from 570 nm O.D., in which the 0.5% DMSO-treated control was set as a standard of 100%. […]

HCT-116 cell lines = experiment: Cellular NAD measurement assay (NAD/NADH-Glo Assay); type: cell-based; details: Homo sapiens; intracellular NAD+/NADH levels, HCT-116 cells, 24 hours treatment, 0.1 nM to 100 nM
Method: With regard to HCT-116 cell lines, the decrease in intracellular NAD+ and NADH levels due to the inhibition of NAMPT enzyme activity by compounds was evaluated using the product of NAD/NADH-Glo™ Assay (Promega, G9072) from Promega. The cells were incubated using DMEM (Gibco, 11995-065) medium containing 10% FBS. The HCT-116 cells were incubated for 24 hours after being distributed at a density of 2,500 cells per well in a 96-well plate, and were treated with a drug using a serum-free DMEM. First, a compound was dissolved in 100% dimethyl sulfoxide (DMSO), and then diluted in the culture medium so that the final concentration of DMSO might reach 0.5%, and treated with the drug. The final concentration range of the compounds was 0.1 nM to 100 nM. After that, they were further incubated for 24 hours at 37°C and CO2 5%. To conduct the NAD/NADH-Glo™ Assay, the culture medium of drug-treated cells was removed, and 50 µL of DPBS was treated per well, and left at room temperature for five minutes. The required amount of NAD/NADH-Glo™ Detection Reagent (Reconstituted Luciferin Detection Reagent 1 mL, Reductase 5 µL, Reductase Substrate 5 µL, NAD Cycling Enzyme 5 µL, NAD Cycling Substrate 25 µL) was prepared according to the manufacturer's manual and treated in an amount of 50 µL per well. After incubating for two minutes at 400 rpm in a plate shaker for cell lysis, the cells were incubated for 30 minutes at room temperature, and luminescence was measured. NAD+/NADH levels were calculated by subtracting the measurement value of the blank well without cells from the measurement value of all wells and taking the 0.5% DMSO-treated control as 100%.

[2] = target: T1, Recombinant NAMPT protein (Homo sapiens, UniProt P43490); experiment: NAMPT enzyme inhibition assay (BPS bioscience NAMPT Inhibitor Screening Assay Kit, fluorescence); type: biochemical; details: 30 min pre-incubation, 2 h at 30°C, compound 1000 nM to 3 nM, n=2
T1 construct: purchased BPS bioscience # 7176-1
T1 sequence (P43490 whole entry): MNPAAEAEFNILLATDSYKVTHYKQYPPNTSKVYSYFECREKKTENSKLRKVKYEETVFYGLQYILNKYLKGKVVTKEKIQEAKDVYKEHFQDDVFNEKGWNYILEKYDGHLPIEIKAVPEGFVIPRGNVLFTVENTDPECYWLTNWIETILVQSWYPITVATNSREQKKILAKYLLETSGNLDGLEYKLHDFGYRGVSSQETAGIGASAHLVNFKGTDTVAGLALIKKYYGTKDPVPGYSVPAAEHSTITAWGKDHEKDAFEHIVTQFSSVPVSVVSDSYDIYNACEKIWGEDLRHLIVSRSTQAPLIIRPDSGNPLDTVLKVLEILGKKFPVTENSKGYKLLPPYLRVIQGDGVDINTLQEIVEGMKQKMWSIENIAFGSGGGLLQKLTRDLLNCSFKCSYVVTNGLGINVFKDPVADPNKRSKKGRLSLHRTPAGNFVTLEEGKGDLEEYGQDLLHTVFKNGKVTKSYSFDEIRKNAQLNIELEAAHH
Method: The NAMPT enzyme activity inhibition ability of the compound of the present invention was evaluated using the NAMPT Inhibitor Screening Assay Kit (# 7176-1) from BPS bioscience. Recombinant NAMPT protein was added to each well of a black 96-well plate, and dilution buffer was added to a blank well instead of NAMPT protein. A 5 x concentrated compound solution was added and pre-incubated at room temperature (approximately 22°C) for 30 minutes before the start of the reaction so that the compound and protein might bind before the enzyme reaction. At this time, the concentration of NAMPT protein was adjusted and used according to the enzyme activity of each protein lot within the final concentration range of 4-10 ng/µl, and the test compound was serially diluted at a ratio of 1:3 from 1000 nM to 3 nM, and experiments were conducted with n=2 for about seven concentrations. A 2 x concentrated test buffer containing ATP (final concentration of 20 µM), nicotinamide (final concentration of 20 µM), phosphoribosyl pyrophosphate (PRPP, final concentration of 40 µM), and ethanol (final concentration of 1.5%) was added, and the plate was incubated at 30°C for two hours, after which the fluorescence of a resulting reaction product was measured with excitation of 340 nm and emission of 460 nm. The NAMPT enzyme activity (%) was calculated by subtracting the measurement value of the blank well without NAMPT protein from the measurement value of all wells, and then taking the measurement value of the control well without the compound as 100%.

Compound | CC50 [1] [nM] | IC50 (HCT-116 cell lines) [nM] | IC50 [2] [nM]
O=C(NCCCc1cn[nH]c1)c1ccc(S(=O)(=O)Cc2ccn(-c3ccncc3)n2)c(C#Cc2ccc(F)cc2)c1 [compound 10, N-(3-(1H-pyrazol-4-yl)propyl)-3-((4-fluorophenyl)ethynyl)-4-(((1-(pyridin-4-yl)-1H-pyrazol-3-yl)methyl)sulfonyl)benzamide] | ≤ 30 | ≤ 10 | < 500
Cn1ccc(CS(=O)(=O)c2ccc(C(=O)NCc3ccn4ccnc4c3)cc2C#Cc2cccc(C(=O)N3CCNCC3)c2)n1 [compound 230, N-(imidazo[1,2-a]pyridin-7-ylmethyl)-4-(((1-methyl-1H-pyrazol-3-yl)methyl)sulfonyl)-3-((3-(piperazine-1-carbonyl)phenyl)ethynyl)benzamide] | 100 to 1000 | 10 to 1000 | < 500
Cn1ccc(CS(=O)(=O)c2ccc(C(=O)NCCCc3cn[nH]c3)cc2C#Cc2ccc(F)cc2)n1 [compound 1, N-(3-(1H-pyrazol-4-yl)propyl)-3-((4-fluorophenyl)ethynyl)-4-(((1-methyl-1H-pyrazol-3-yl)methyl)sulfonyl)benzamide] | ≤ 30 | ≤ 10 | < 500
Cn1ccc(CS(=O)(=O)c2ccc(C(=O)NCc3ccn4ccnc4c3)cc2C#Cc2ccc(N)cc2)n1 [compound 228, 3-((4-aminophenyl)ethynyl)-N-(imidazo[1,2-a]pyridin-7-ylmethyl)-4-(((1-methyl-1H-pyrazol-3-yl)methyl)sulfonyl)benzamide] | ≤ 30 | ≤ 10 | < 500
Cn1ccc(CS(=O)(=O)c2ccc(C(=O)NCc3ccn4ccnc4c3)cc2C#Cc2cccc(N)c2)n1 [compound 229, 3-((3-aminophenyl)ethynyl)-N-(imidazo[1,2-a]pyridin-7-ylmethyl)-4-(((1-methyl-1H-pyrazol-3-yl)methyl)sulfonyl)benzamide] | ≤ 30 | ≤ 10 | < 500
Cn1ccc(CS(=O)(=O)c2ccc(C(=O)NCc3ccn4ccnc4c3)cc2C#Cc2ccc(F)cc2)n1 [compound 2, 3-((4-fluorophenyl)ethynyl)-N-(imidazo[1,2-a]pyridin-7-ylmethyl)-4-(((1-methyl-1H-pyrazol-3-yl)methyl)sulfonyl)benzamide] | ≤ 30 | ≤ 10 | < 500
Cn1ccc(CS(=O)(=O)c2ccc(C(=O)NCc3ccn4ccnc4c3)cc2C#Cc2cccc(CN)c2)n1 [compound 232, 3-((3-(aminomethyl)phenyl)ethynyl)-N-(imidazo[1,2-a]pyridin-7-ylmethyl)-4-(((1-methyl-1H-pyrazol-3-yl)methyl)sulfonyl)benzamide] | ≤ 30 | – | < 500
